Measurements: patent US8940777B2 (priority 2008, dated 2015)
Like-named read-outs stand apart in the source and are kept apart here.

System: Rhizoctonia solani
Format: in vivo
Settings: cucumber (Sagami Hanjiro) seeds coated, 7 days after sowing
Method: Thoroughly mixed were 2.5 parts of clothianidin, 1.25 parts of tolclofos-methyl, 14 parts of polyoxyethylene styryl phenyl ether, 6 parts of calcium dodecylbenzenesulfonate and 76.25 parts of xylene to give a formulation.
The formulation was diluted with acetone, to prepare an acetone mixed solution containing clothianidin and tolclofos-methyl of given concentration.
Five (5) g of cucumber (Sagami Hanjiro) seeds were coated with 1 ml of the mixed solution using a rotation mode seed treating machine (Seed Dresser, manufactured by Hans-Ulrich Hege GmbH), to give treated seeds.
The treated seeds were allowed to stand still overnight, then, sowed on a soil stuffed in a plastic pot, and covered by a soil blended with Rhizoctonia solani cultured in a bran medium. Cultivation thereof was performed at room temperature while irrigating. Seven (7) days after sowing, the number of non-budded seeds was checked, and the damaged ratio was calculated from the formula 1. Based on the damaged ratio, the control value was calculated from the formula 2.
For comparison, an acetone solution containing clothianidin of a given concentration, and an acetone solution containing tolclofos-methyl of a given concentration were prepared, and subjected to the same test. […]

SMILES | Control value (active ingredient amount 200 g/100 kg-seed) | Control value (active ingredient amount 10 g/100 kg-seed)
CN/C(=N\[N+](=O)[O-])NCc1cnc(Cl)s1 [Clothianidin, clothianidin] | 4 | 
COP(=S)(OC)Oc1c(Cl)cc(C)cc1Cl [Tolclofos-methyl, tolclofos-methyl] |  | 57
